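Where inhibition never reached the appropriate level, the endpoint shown equals the highest concentration tested. Otherwise, values were interpolated linearly from a five-concentration, 48-hour dose response in 96-well plates. Here, GI50 denotes the concentration required for 50% inhibition of growth. TGI: total growth inhibition.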
How the values were obtained:
Assay in all cases: DTP human tumour cell line panel, 48 h
MDA-MB-231 breast = system: MDA-MB-231 breast
BT-549 breast = system: BT-549 breast
MDA-MB-435 = system: MDA-MB-435
M14 melanoma = system: M14 melanoma
HS 578T breast = system: HS 578T breast
TK-10 renal = system: TK-10 renal
KM20L2 colon = system: KM20L2 colon
HOP-18 NSCLC = system: HOP-18 NSCLC
NCI-H23 lung = system: NCI-H23 lung
MALME-3M melanoma = system: MALME-3M melanoma
HCT-15 colon = system: HCT-15 colon
KM12 colon = system: KM12 colon
SNB-19 CNS = system: SNB-19 CNS
M19-MEL melanoma = system: M19-MEL melanoma

| SMILES | GI50 (MDA-MB-231 breast) [µM] | TGI (MDA-MB-231 breast) [µM] | GI50 (BT-549 breast) [µM] | TGI (BT-549 breast) [µM] | GI50 (MDA-MB-435) [µM] | TGI (MDA-MB-435) [µM] | GI50 (M14 melanoma) [µM] | TGI (M14 melanoma) [µM] | GI50 (HS 578T breast) [µM] | TGI (HS 578T breast) [µM] | GI50 (TK-10 renal) [µM] | TGI (TK-10 renal) [µM] | TGI (KM20L2 colon) [µM] | TGI (HOP-18 NSCLC) [µM] | TGI (NCI-H23 lung) [µM] | TGI (MALME-3M melanoma) [µM] | TGI (HCT-15 colon) [µM] | TGI (KM12 colon) [µM] | TGI (SNB-19 CNS) [µM] | TGI (M19-MEL melanoma) [µM] |
| --- | --- | --- | --- | --- | --- | --- | --- | --- | --- | --- | --- | --- | --- | --- | --- | --- | --- | --- | --- | --- |
| COc1cc(/C=C2\CN(S(=O)(=O)c3ccc(C)cc3)C/C(=C\c3cc(CN4CCCCC4)c(O)c(OC)c3)C2=O)cc(CN2CCCCC2)c1O | 1.14 | 2.77 | 1.38 | 2.77 | 0.36 | 1.39 | 1.61 | 3.27 | 1.92 | 4.5 | 1.98 | 3.63 |  |  |  |  |  |  |  |  |
| NC(Cc1c[nH]c2ccccc12)C(=O)O (stereo not given) |  |  |  |  |  |  |  |  |  |  |  |  | > 300 | 196 | > 300 | > 300 | > 191 | > 300 | > 300 | > 300 |

From PubChem BioAssay (NCI)
